Experiments:
[1] = molecular target: T1, Dual specificity mitogen-activated protein kinase kinase 4 (Homo sapiens) (UniProt P45985); conditions: at 10 µM
T1 sequence (whole entry): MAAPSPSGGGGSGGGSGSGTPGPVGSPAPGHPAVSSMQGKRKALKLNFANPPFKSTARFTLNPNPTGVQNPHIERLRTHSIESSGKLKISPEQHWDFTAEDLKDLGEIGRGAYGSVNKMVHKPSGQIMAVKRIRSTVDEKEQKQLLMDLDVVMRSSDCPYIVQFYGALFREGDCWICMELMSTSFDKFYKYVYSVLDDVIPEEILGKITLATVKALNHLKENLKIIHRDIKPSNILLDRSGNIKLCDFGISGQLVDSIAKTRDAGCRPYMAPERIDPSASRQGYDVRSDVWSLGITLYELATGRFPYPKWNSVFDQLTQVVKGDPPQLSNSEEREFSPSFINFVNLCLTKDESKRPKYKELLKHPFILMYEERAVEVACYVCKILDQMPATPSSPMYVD

[2] = molecular target: T2, Serine/threonine-protein kinase DCLK1 (Homo sapiens) (UniProt O15075); conditions: at 10 µM
T2 sequence (whole entry): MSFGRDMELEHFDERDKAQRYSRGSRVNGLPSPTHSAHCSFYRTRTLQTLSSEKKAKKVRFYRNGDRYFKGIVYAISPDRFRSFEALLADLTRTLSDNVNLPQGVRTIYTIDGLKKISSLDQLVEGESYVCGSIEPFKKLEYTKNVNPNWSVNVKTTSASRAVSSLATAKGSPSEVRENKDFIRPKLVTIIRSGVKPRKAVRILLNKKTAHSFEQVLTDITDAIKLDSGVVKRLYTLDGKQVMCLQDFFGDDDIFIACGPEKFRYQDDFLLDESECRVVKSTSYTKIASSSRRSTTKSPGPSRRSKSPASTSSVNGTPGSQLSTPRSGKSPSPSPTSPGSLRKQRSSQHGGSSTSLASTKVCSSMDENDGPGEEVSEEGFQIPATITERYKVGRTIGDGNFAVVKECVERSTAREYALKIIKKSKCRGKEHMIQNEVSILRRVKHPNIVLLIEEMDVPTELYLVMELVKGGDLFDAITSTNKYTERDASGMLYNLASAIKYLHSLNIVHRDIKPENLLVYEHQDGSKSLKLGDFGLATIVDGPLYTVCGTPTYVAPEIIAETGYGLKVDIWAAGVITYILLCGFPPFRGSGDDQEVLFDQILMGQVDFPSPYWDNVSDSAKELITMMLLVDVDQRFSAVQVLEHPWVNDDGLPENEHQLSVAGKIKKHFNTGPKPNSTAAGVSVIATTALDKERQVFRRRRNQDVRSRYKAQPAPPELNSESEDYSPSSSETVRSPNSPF

[3] = molecular target: Activin receptor type-2B (Homo sapiens) (UniProt Q13705); test: Selectivity interaction (KinomeScan (DiscoverX)) EUB0000092b ACVR2B; conditions: at 10 µM
Activin receptor type-2B (Homo sapiens), sequence (Q13705 whole entry): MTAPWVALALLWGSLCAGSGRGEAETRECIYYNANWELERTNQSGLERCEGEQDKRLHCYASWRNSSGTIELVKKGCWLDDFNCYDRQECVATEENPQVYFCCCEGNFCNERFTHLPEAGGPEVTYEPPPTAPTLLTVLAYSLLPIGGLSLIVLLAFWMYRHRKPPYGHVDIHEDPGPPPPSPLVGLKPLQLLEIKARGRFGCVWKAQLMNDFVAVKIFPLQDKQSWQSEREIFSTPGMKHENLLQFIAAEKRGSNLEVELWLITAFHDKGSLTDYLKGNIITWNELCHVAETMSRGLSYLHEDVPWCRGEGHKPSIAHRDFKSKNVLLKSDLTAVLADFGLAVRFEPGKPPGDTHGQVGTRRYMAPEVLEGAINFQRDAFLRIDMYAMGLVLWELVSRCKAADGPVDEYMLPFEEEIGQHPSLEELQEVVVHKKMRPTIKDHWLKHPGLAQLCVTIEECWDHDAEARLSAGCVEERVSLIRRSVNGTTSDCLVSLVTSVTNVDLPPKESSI

[4] = molecular target: T3, Aurora kinase C (Homo sapiens) (UniProt Q9UQB9); test: Selectivity interaction (KinomeScan (DiscoverX)) EUB0000092b AURKC; conditions: at 10 µM
T3 sequence (whole entry): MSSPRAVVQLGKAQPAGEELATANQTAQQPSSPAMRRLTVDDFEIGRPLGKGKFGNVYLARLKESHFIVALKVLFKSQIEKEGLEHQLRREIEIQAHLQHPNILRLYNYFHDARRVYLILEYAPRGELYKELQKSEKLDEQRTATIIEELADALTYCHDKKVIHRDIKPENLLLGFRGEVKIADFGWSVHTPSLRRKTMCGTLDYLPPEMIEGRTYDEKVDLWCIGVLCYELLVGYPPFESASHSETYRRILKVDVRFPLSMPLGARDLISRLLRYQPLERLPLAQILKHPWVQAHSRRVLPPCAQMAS

[5] = molecular target: Citron Rho-interacting kinase (Homo sapiens) (UniProt O14578); conditions: at 10 µM
Citron Rho-interacting kinase (Homo sapiens), sequence (O14578 whole entry): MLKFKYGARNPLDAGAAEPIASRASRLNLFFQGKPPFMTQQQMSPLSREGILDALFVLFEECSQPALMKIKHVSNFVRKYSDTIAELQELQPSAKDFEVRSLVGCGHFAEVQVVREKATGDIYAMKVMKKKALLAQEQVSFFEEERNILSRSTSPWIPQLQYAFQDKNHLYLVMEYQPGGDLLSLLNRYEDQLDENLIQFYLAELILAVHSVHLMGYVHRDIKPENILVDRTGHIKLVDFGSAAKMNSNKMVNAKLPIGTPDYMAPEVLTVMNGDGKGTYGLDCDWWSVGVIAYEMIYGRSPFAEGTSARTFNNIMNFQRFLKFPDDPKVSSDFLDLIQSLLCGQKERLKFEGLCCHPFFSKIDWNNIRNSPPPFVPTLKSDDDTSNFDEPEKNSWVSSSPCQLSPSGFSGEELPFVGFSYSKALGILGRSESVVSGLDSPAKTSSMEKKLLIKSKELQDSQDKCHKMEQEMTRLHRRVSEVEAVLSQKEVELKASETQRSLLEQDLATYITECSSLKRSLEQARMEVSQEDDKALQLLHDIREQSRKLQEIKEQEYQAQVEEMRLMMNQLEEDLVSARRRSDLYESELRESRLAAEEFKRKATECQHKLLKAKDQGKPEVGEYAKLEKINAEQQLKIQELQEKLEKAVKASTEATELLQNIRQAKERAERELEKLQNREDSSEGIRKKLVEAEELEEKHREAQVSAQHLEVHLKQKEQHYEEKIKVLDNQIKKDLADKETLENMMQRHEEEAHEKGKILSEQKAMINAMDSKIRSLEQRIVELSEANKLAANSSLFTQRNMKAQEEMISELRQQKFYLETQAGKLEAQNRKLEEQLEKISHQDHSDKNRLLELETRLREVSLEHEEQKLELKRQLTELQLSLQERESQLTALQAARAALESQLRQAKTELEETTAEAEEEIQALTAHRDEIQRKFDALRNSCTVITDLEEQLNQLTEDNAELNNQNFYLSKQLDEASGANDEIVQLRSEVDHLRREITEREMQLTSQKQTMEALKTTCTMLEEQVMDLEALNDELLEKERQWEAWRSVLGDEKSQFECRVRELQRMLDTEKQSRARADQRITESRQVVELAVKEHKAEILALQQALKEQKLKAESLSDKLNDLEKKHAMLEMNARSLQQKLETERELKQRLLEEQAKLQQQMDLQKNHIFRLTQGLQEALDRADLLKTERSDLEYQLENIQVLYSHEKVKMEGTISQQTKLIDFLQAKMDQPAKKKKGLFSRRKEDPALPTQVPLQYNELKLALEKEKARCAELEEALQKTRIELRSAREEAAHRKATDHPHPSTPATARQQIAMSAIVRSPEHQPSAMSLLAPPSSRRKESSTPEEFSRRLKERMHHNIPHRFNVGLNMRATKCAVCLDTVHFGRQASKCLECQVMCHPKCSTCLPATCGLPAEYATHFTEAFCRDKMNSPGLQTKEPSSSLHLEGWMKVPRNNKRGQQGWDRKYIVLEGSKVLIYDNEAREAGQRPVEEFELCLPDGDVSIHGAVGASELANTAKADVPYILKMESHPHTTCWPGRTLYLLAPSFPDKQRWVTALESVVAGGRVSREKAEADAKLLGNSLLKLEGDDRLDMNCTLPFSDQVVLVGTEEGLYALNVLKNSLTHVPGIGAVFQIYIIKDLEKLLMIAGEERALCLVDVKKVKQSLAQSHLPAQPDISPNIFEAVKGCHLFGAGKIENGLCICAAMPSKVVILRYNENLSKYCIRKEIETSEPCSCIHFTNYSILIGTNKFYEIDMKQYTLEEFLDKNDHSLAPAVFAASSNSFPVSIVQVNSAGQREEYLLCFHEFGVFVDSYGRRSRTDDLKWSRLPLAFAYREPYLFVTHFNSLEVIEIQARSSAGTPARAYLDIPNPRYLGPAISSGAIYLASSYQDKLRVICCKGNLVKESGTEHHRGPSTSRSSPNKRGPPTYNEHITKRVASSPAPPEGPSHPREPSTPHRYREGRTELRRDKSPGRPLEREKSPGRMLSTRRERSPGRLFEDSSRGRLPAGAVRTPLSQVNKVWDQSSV

[6] = Selectivity interaction (ActivX KiNativ screen (kinase selectivity in THP-1 cell lysates)) EUB0000639a STLK6; conditions: Selectivity number of off-targets 0; Selectivity number of targets 283; Source Knowledge https://pubmed.ncbi.nlm.nih.gov/28498658/; at 0.04 µM
[7] = test system: Tyrosine-protein kinase ABL1 (Homo sapiens), P00519 [E255K]; test: (§1) Selectivity interaction (KinomeScan (DiscoverX)) EUB0000607a ABL1; conditions: at 10 µM
[8] = test system: Tyrosine-protein kinase ABL1 (Homo sapiens), P00519 [H396P]; test: as §1; conditions: at 10 µM
[9] = test system: Tyrosine-protein kinase ABL1 (Homo sapiens), P00519 [Q252H]; test: as §1; conditions: at 10 µM
[10] = test system: Tyrosine-protein kinase ABL1 (Homo sapiens), P00519 [Y253F]; test: as §1; conditions: at 10 µM
[11] = test system: Tyrosine-protein kinase ABL1 (Homo sapiens), P00519 [T315I]; test: as §1; conditions: at 10 µM
[12] = test system: Tyrosine-protein kinase ABL1 (Homo sapiens), P00519 [F317I]; test: as §1; conditions: at 10 µM
[13] = test system: Tyrosine-protein kinase ABL1 (Homo sapiens), P00519 [M351T]; test: as §1; conditions: at 10 µM
[14] = molecular target: Tyrosine-protein kinase ABL1 (Homo sapiens, UniProt P00519); test: as §1; conditions: at 10 µM
[15] = test system: Tyrosine-protein kinase ABL1 (Homo sapiens), P00519 [F317L]; test: as §1; conditions: at 10 µM
[16] = molecular target: Interleukin-1 receptor-associated kinase 1 (Homo sapiens) (UniProt P51617); test: Selectivity interaction (KinomeScan (DiscoverX)) EUB0000607a IRAK1; conditions: at 10 µM
Interleukin-1 receptor-associated kinase 1 (Homo sapiens), sequence (P51617 whole entry, looked up): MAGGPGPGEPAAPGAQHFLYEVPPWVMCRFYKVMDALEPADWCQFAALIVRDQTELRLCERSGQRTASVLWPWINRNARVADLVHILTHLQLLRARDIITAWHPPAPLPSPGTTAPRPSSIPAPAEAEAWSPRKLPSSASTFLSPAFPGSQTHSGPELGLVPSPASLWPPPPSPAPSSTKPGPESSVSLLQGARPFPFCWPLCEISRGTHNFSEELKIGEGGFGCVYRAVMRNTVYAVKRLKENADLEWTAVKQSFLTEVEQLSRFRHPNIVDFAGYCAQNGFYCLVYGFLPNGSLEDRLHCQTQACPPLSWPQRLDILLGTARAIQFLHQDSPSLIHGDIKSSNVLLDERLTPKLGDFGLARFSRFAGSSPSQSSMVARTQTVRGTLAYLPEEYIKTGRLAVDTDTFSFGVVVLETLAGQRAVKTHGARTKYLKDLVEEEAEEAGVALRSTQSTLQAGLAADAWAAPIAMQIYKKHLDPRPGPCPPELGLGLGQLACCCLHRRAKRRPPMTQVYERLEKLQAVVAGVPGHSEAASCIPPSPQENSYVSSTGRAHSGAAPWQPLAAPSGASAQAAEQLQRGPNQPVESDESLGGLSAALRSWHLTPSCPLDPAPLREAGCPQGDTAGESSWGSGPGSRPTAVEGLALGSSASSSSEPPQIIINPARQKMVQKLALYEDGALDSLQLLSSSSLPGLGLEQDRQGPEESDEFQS

[17] = molecular target: Calcium/calmodulin-dependent protein kinase type 1D (Homo sapiens) (UniProt Q8IU85); test: Selectivity interaction (KinomeScan (DiscoverX)) EUB0001049a CAMK1D; conditions: at 1 µM
Calcium/calmodulin-dependent protein kinase type 1D (Homo sapiens), sequence (Q8IU85 whole entry, looked up): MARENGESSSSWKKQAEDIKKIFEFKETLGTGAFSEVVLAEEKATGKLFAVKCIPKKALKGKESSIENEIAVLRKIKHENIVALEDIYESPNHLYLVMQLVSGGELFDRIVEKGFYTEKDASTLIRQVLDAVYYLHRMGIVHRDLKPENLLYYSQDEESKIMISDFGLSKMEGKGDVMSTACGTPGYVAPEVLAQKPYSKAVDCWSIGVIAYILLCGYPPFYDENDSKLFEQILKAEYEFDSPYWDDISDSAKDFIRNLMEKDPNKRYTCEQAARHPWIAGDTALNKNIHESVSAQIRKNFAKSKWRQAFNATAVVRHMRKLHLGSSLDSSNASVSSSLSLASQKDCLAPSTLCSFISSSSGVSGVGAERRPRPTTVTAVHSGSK

[18] = molecular target: STE20/SPS1-related proline-alanine-rich protein kinase (Homo sapiens) (UniProt Q9UEW8); test: Selectivity interaction (KinomeScan (DiscoverX)) EUB0000695a STK39; conditions: at 100 nM
[19] = molecular target: Protein kinase C eta type (Homo sapiens) (UniProt P24723); test: Selectivity interaction (KinomeScan (DiscoverX)) EUB0000595a PRKCH; conditions: at 10 µM
Protein kinase C eta type (Homo sapiens), sequence (P24723 whole entry): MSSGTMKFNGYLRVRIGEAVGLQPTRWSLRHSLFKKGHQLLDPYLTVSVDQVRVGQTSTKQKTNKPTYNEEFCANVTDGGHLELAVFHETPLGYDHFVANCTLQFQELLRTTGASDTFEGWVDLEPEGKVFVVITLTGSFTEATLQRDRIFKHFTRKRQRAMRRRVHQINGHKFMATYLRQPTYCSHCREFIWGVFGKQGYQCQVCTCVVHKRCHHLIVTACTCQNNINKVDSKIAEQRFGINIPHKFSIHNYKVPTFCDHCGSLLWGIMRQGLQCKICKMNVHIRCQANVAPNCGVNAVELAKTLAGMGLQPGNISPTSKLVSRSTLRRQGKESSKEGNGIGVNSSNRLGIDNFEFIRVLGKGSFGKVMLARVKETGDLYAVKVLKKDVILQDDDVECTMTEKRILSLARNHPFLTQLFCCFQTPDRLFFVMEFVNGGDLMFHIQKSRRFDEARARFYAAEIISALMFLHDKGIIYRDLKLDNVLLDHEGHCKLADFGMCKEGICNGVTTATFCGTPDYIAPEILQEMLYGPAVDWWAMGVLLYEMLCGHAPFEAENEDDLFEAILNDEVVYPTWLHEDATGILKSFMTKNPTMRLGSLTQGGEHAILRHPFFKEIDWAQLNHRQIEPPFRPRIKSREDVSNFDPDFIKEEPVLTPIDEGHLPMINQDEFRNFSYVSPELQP

[20] = molecular target: Casein kinase II subunit alpha (Homo sapiens, UniProt P68400); test: Selectivity interaction (KinomeScan (DiscoverX)) EUB0000045b CSNK2A1
Casein kinase II subunit alpha, sequence (P68400 whole entry, looked up): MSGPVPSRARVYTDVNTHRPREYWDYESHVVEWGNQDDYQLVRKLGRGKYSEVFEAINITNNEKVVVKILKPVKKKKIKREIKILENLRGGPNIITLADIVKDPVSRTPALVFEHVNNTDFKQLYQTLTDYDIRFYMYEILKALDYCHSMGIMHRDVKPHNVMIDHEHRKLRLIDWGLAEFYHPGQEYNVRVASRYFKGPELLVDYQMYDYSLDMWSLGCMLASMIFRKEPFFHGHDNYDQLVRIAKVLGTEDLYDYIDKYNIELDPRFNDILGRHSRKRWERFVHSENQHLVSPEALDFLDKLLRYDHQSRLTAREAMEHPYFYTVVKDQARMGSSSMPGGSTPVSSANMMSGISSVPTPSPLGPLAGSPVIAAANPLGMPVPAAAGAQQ

Which % of control [1] does the source give for `CCN(CC)CCCCNc1ncc2cc(-c3cc(OC)cc(OC)c3)c(NC(=O)NC(C)(C)C)nc2n1` here?
The % of control was 100%.

And the % of control [2]?
The % of control was 100%.

With `CCC(=O)N1CCN(c2ccc(-n3c(=O)ccc4cnc5ccc(-c6cnc7ccccc7c6)cc5c43)cc2C(F)(F)F)CC1` as the molecule, how does the % of control [3] read?
The % of control was 42%.

What about the % of control [4] of the same molecule?
The % of control was 91%.

With `Cc1cc([C@@H](C)Nc2ccccc2C(=O)O)c2nc(N3CCOCC3)cc(=O)n2c1` [AZD-6482] as the molecule, how does the % of control [5] read?
The % of control was 89%.

Which “% of inhibition” value [6] does the source give for `CC[C@@H]1[C@H](F)C(=O)N[C@@H]1COc1nccc2cc(C(N)=O)c(OC)cc12` [ZIMLOVISERTIB] here?
The value was 16%.

Which % of control [7] does the source give for `CNC(=O)Nc1ccc(-c2nc(N3CC4CCC(C3)O4)c3cnn(C4CCC5(CC4)OCCO5)c3n2)cc1` here?
The % of control was 100%.

What about the % of control [8] of the same molecule?
Its % of control is 100%.

And the % of control [9]?
Its % of control is 100%.

What about the % of control [10] of the same molecule?
Its % of control is 99%.

And the % of control [11]?
Its % of control is 83%.

And the % of control [12]?
Its % of control is 100%.

What about the % of control [13] of the same molecule?
The % of control was 100%.

And the % of control [14]?
The % of control was 100%.

And the % of control [15]?
The % of control was 100%.

And the % of control [16]?
The % of control was 100%.

For `COc1cc(Nc2nc(C)cc(-c3cnn4nc(OC)ccc34)n2)cc(C(F)(F)F)c1`, which % of control [17] is on record?
The % of control was 84%.

For `Cc1cc(F)c(C(=O)Nc2cccc(-c3nncn3C(C)C)n2)cc1-n1cnc(C2CC2)c1`, which % of control [18] is on record?
The % of control was 79%.

With `COCC(=O)NC/C=C/c1ccc2ncnc(Nc3ccc(Oc4ccc(C)nc4)c(C)c3)c2c1` [CP-724714] as the molecule, how does the % of control [19] read?
The % of control was 100%.

With `C=CC(=O)Nc1cc(-n2c(=O)ccc3cnc4ccc(-c5ccc(NS(C)(=O)=O)cc5)cc4c32)ccc1C` as the molecule, how does the % of control ([20]; at 1 µM) read?
The % of control was 84%.

What about the % of control ([20]; at 10 µM) of the same molecule?
The % of control was 51%.

Reference: ChEMBL document CHEMBL5465560, “Selectivity Literature for EUbOPEN Chemogenomic Library” (2024)
